Measured values: PubChem BioAssay (NCI)
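Briefly, cells in 96-well plates were exposed to five compound concentrations for 48 h, and endpoints were estimated by linear interpolation. The concentration for 50% growth inhibition is given as GI50. TGI denotes the concentration required for complete inhibition of growth.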

Columns and labels:
Assay in all cases: NCI tumour cell line growth inhibition, 48 h
[1] = system: SK-OV-3 ovarian
[2] = system: MOLT-4 leukemia
[3] = system: SF-295 CNS
[4] = system: NCI-H226 lung
[5] = system: 786-0 renal
[6] = system: M14 melanoma
[7] = system: HCC-2998 colon
[8] = system: OVCAR-4 ovarian
[9] = system: IGROV1 ovarian
[10] = system: NCI-H23 lung

For `O=c1cc(-c2ccccc2)[nH]c2c1CCCC2`, the GI50 [1] was 5.11 µM, the TGI [1] was > 100 µM and the GI50 [2] was 6.16 µM. For the same compound, the TGI [2] was > 100 µM, the GI50 [3] was 1.43 µM and the TGI [3] was 7.61 µM. For the same compound, the GI50 [4] was 3.08 µM, the TGI [4] was 65.6 µM and the GI50 [5] was 14.7 µM. For the same compound, the TGI [5] was > 100 µM, the GI50 [6] was 1.5 µM and the TGI [6] was 5.68 µM. For the same compound, the GI50 [7] was 2.5 µM, the TGI [7] was 31.9 µM and the GI50 [8] was 9.08 µM. For the same compound, the TGI [8] was > 100 µM, the GI50 [9] was 3.59 µM and the TGI [9] was > 100 µM. For the same compound, the GI50 [10] was 3.39 µM and the TGI [10] was > 100 µM.
With `COc1ccc(CSC2=C(C#N)C(=O)NC3(CCCCC3)S2)cc1` the TGI [1] was > 100 µM, the TGI [2] was > 100 µM and the TGI [3] was > 100 µM. The TGI [4] was > 100 µM, the TGI [5] was > 100 µM and the TGI [6] was > 100 µM. For the same compound, the TGI [7] was 62.4 µM, the TGI [8] was > 100 µM and the TGI [9] was > 100 µM. The TGI [10] was > 100 µM.
`COc1c(OC)c(OC)c2c(=O)cc(-c3ccc(OC(C)C)cc3)oc2c1OC` was tested, and the TGI [1] was > 50.5 µM, the TGI [2] was 23.8 µM and the TGI [3] was > 53.6 µM. For the same compound, the TGI [4] was 32.3 µM, the TGI [5] was > 49.3 µM and the TGI [6] was 43.1 µM. The TGI [7] was > 53.2 µM, the TGI [8] was > 49.2 µM and the TGI [9] was > 56.8 µM. For the same compound, the TGI [10] was > 56.5 µM.
`COc1ccc2nc(C)cc(Sc3nc4ccccc4s3)c2c1` showed a GI50 [1] of 1.19 µM, a TGI [1] of 4.75 µM and a GI50 [2] of 1.25 µM. For the same compound, the TGI [2] was 7.92 µM, the GI50 [3] was 2.48 µM and the TGI [3] was 13.2 µM. For the same compound, the GI50 [4] was 0.728 µM, the TGI [4] was 4.1 µM and the GI50 [5] was 0.562 µM. The TGI [5] was 3.28 µM, the GI50 [6] was 1.92 µM and the TGI [6] was 9.34 µM. The GI50 [7] was 0.0938 µM, the TGI [7] was 2.54 µM and the GI50 [8] was 0.993 µM. The TGI [8] was > 21.2 µM, the GI50 [9] was 2.2 µM and the TGI [9] was 13.9 µM. The GI50 [10] was 1.78 µM and the TGI [10] was 7.56 µM.
In the case of `O=C1C=CC(=O)c2c1ccc1c3ccccc3n(Cc3ccccc3)c21`, the TGI [1] is reported as > 100 µM, the TGI [2] is reported as > 38.4 µM and the TGI [3] is reported as > 100 µM. For the same compound, the TGI [4] was 24.7 µM, the TGI [5] was 33.1 µM and the TGI [6] was 42 µM. For the same compound, the TGI [7] was > 79.5 µM, the TGI [8] was 18.1 µM and the TGI [9] was 46.2 µM. For the same compound, the TGI [10] was 42.7 µM.
In the case of `Cc1cc(Cl)cc2c1NC(=O)C2(O)CC(=O)c1ccc(Br)cc1` (stereo not given), the TGI [1] is reported as > 100 µM, the TGI [2] is reported as 46.5 µM and the TGI [3] is reported as > 100 µM. The TGI [4] was > 100 µM, the TGI [5] was > 100 µM and the TGI [6] was > 100 µM. For the same compound, the TGI [7] was > 100 µM, the TGI [8] was > 54.6 µM and the TGI [9] was > 100 µM. For the same compound, the TGI [10] was 99.4 µM.
For `CC(C)N(C(=O)C12C3C4C5(C(=O)O)C(C1C35I)C42C(=O)O)C(C)C` (stereo not given), the TGI [1] was > 100 µM, the TGI [2] was > 100 µM and the TGI [3] was > 100 µM. For the same compound, the TGI [4] was > 100 µM, the TGI [5] was > 100 µM and the TGI [6] was > 100 µM. The TGI [7] was > 100 µM, the TGI [8] was > 100 µM and the TGI [9] was > 100 µM. The TGI [10] was > 100 µM.
With `CN(C)CCN1C(=O)c2cccc3c(/C=C/CN4C(=O)c5cccc6cccc(c56)C4=O)ccc(c23)C1=O` the GI50 [1] was > 100 µM, the TGI [1] was > 100 µM and the GI50 [2] was > 100 µM. The TGI [2] was > 100 µM, the GI50 [3] was > 100 µM and the TGI [3] was > 100 µM. For the same compound, the GI50 [4] was 1.92 µM, the TGI [4] was 35.4 µM and the GI50 [5] was 4.5 µM. The TGI [5] was 19.5 µM, the GI50 [6] was > 100 µM and the TGI [6] was > 100 µM. The GI50 [7] was > 100 µM, the TGI [7] was > 100 µM and the GI50 [8] was > 100 µM. The TGI [8] was > 100 µM, the GI50 [9] was > 100 µM and the TGI [9] was > 100 µM. The GI50 [10] was > 100 µM and the TGI [10] was > 100 µM.
`Brc1cc(C2OCCCO2)ccc1OCc1ccccc1` was tested, and the TGI [1] was > 100 µM, the TGI [2] was > 100 µM and the TGI [3] was > 100 µM. For the same compound, the TGI [4] was > 100 µM, the TGI [5] was > 100 µM and the TGI [6] was > 100 µM. The TGI [7] was > 100 µM, the TGI [8] was > 100 µM and the TGI [9] was > 100 µM. The TGI [10] was > 100 µM.
In the case of `O=C(O)CSC1=NNC2(C(=O)N1)c1ccccc1-c1ccccc12`, the TGI [1] is reported as > 10 µM, the TGI [2] is reported as > 10 µM and the TGI [3] is reported as > 10 µM. For the same compound, the TGI [4] was > 10 µM, the TGI [5] was > 10 µM and the TGI [6] was > 10 µM. The TGI [7] was > 10 µM, the TGI [8] was > 10 µM and the TGI [9] was > 10 µM. The TGI [10] was > 10 µM.
For `OCCCCC#Cc1ccccc1C#Cc1cccnc1`, the GI50 [1] was 57.3 µM, the TGI [1] was > 100 µM and the GI50 [2] was 27.9 µM. The TGI [2] was > 100 µM, the GI50 [3] was 22.3 µM and the TGI [3] was 60.4 µM. For the same compound, the GI50 [4] was 34.1 µM, the TGI [4] was > 100 µM and the GI50 [5] was 20.2 µM. The TGI [5] was 58.3 µM, the GI50 [6] was 23.4 µM and the TGI [6] was 75.4 µM. It also gave a GI50 [7] of 24.8 µM, a TGI [7] of 70.7 µM and a GI50 [8] of 26.5 µM. The TGI [8] was > 100 µM, the GI50 [9] was 20.3 µM and the TGI [9] was 52 µM. For the same compound, the GI50 [10] was 28 µM and the TGI [10] was > 100 µM.
